Measured values: patent publication US9745291B2, “PRMT5 inhibitors containing a dihydro- or tetrahydroisoquinoline and uses thereof” (Epizyme, Inc., priority 2012, dated 2017)

How the values were obtained:
[1] = target: PRMT5/MEP50 (Homo sapiens (Human), UniProt O14744); experiment: PRMT5 Biochemical Assay (PRMT5/MEP50 enzyme assay on peptide substrate, 3H-SAM Flashplate); conditions: PRMT5 biochemical assay; read-out: Biochemical IC50
Description: S-adenosylmethionine (SAM), S-adenosylhomocysteine (SAH), bicine, KCl, Tween20, dimethylsulfoxide (DMSO), bovine skin gelatin (BSG), and Tris(2-carboxyethyl)phosphine hydrochloride solution (TCEP) were purchased from Sigma-Aldrich at the highest level of purity possible. ^3H-SAM was purchase from American Radiolabeled Chemicals with a specific activity of 80 Ci/mmol. 384-well streptavidin Flashplates were purchased from PerkinElmer.
Peptide representative of human histone H4 residues 1-15 was synthesized with a C-terminal linker-affinity tag motif and a C-terminal amide cap by 21st Century Biochemicals. […] The sequence was Ac-[…][K-Biot]-amide (SEQ ID NO.:3).
Full-length human MEP50 (NM_024102) clone was amplified from a human testis cDNA library incorporating a 5′ sequence encoding a 6-histidine tag (MHHHHHH)(SEQ ID NO.:5) fused directly to Arg 2 of MEP50. The amplified genes were sublconed into pENTR/D/TEV (Life Technologies) and subsequently transferred by Gateway™ attL×attR recombination to pDEST8 baculvirus expression vector (Life Technologies).
Recombinant baculovirus and Baculovirus-Infected Insect Cells (BIIC) were generated according to Bac-to-Bac kit instructions (Life Technologies) and Wasilko, 2006, respectively. Protein over-expression was accomplished by infecting exponentially growing Spodoptera frugiperda (SF9) cell culture at 1.2×10^6 cell/ml with a 5000 fold dilution of BIIC stock. Infections were carried out at 27° C. for 72 hours, harvested by centrifugation, and stored at −80° C. for purification.
Flag-PRMT5/6His-MeP50 was eluted with 300 mM Imidazole in the same buffer. […] Reference: Wasilko, D. J. and S. E. Lee: “TIPS: titerless infected-cells preservation and scale-up” Bioprocess J., 5 (2006), pp. 29-32.
General Procedure for PRMT5/MEP50 Enzyme Assays on Peptide Substrates.
The assays were all performed in a buffer consisting of 20 mM Bicine (pH=7.6), 1 mM TCEP, 0.005% BSG, and 0.002% Tween20, prepared on the day of use. Compounds in 100% DMSO (1 ul) were spotted into a polypropylene 384-well V-bottom plates (Greiner) using a Platemate Plus outfitted with a 384-channel head (Thermo Scientific). DMSO (1 ul) was added to Columns 11, 12, 23, 24, rows A-H for the maximum signal control and 1 ul of SAH, a known product and inhibitor of PRMT5/MEP50, was added to columns 11, 12, 23, 24, rows I-P for the minimum signal control. A cocktail (40 ul) containing the PRMT5/MEP50 enzyme and the peptide was added by Multidrop Combi (Thermo-Fisher). The compounds were allowed to incubate with PRMT5/MEP50 for 30 min at 25 degrees Celsius, then a cocktail (10 ul) containing ^3H-SAM was added to initiate the reaction (final volume=51 ul).

[2] = tested on: Z-138 cell line; experiment: Z-138 Proliferation Assay (Cell Titer Glo, 5 days); assay type: cell-based; conditions: Homo sapiens, Z-138, 120 h, Z-138 cells
Description: [formula] Z-138 Proliferation Assay
Z-138 suspension cells were purchased from ATCC (American Type Culture Collection, Manassas, Va.). RPMI/Glutamax medium, penicillin-streptomycin, heat inactivated fetal bovine serum were purchased from Life Technologies, Grand Island, N.Y., USA. V-bottom polypropylene 384-well plates were purchased from Greiner Bio-One, Monroe, N.C., USA. Cell culture 384-well white opaque plates were purchased from Perkin Elmer, Waltham, Mass., USA. Cell-Titer Glo® was purchased from Promega Corporation, Madison, Wis., USA. SpectraMax M5 plate reader was purchased from Molecular Devices LLC, Sunnyvale, Calif., USA.
Z-138 suspension cells were maintained in growth medium (RPMI 1640 supplemented with 10% v/v heat inactivated fetal bovine serum and cultured at 37° C. under 5% CO2 Under assay conditions, cells were incubated in assay medium (RPMI 1640 supplemented with 10% v/v heat inactivated fetal bovine serum and 100 units/mL penicillin-streptomycin) at 37° C. under 5% CO2.
For the assessment of the effect of compounds on the proliferation of the Z-138 cell line, exponentially growing cells were plated in 384-well white opaque plates at a density of 10,000 cells/ml in a final volume of 50 μl of assay medium. A compound source plate was prepared by performing triplicate nine-point 3-fold serial dilutions in DMSO, beginning at 10 mM (final top concentration of compound in the assay was 20 μM and the DMSO was 0.2%). A 100 nL aliquot from the compound stock plate was added to its respective well in the cell plate. […] After addition of compounds, assay plates were incubated for 5 days at 37° C., 5% CO2, relative humidity >90%.
Cell viability was measured by quantitation of ATP present in the cell cultures, adding 35 μl of Cell Titer Glo® reagent to the cell plates. Luminescence was read in the SpectraMax M5 microplate reader. The concentration of compound inhibiting cell viability by 50% was determined using a 4-parametric fit of the normalized dose response curves.

[3] = tested on: symmetric di-methyl arginine in Z-138 cells; experiment: Z-138 Methylation Assay (In Cell Western for symmetric di-methyl arginine and DNA content); assay type: cell-based; conditions: Homo sapiens, Z-138, Z-138 cells, read-out: ICW EC50
Description: [formula] Where top and bottom are the normally allowed to float, but may be fixed at 100 or 0 respectively in a 3-parameter fit. The Hill Coefficient normally allowed to float but may also be fixed at 1 in a 3-parameter fit. Y is the % inhibition and X is the compound concentration. Z-138 Methylation Assay
Z-138 suspension cells were purchased from ATCC (American Type Culture Collection, Manassas, Va.). RPMI/Glutamax medium, penicillin-streptomycin, heat inactivated fetal bovine serum, and D-PBS were purchased from Life Technologies, Grand Island, N.Y., USA. Odyssey blocking buffer, 800CW goat anti-rabbit IgG (H+L) antibody, and Licor Odyssey infrared scanner were purchased from Licor Biosciences, Lincoln, Nebr., USA. Symmetric di-methyl arginine antibody was purchased from EMD Millipore, Billerica, Mass., USA. 16% Paraformaldehyde was purchased from Electron Microscopy Sciences, Hatfield, Pa., USA.
Z-138 suspension cells were maintained in growth medium (RPMI 1640 supplemented with 10% v/v heat inactivated fetal bovine serum and 100 units/mL penicillin-streptomycin) and cultured at 37° C. under 5% CO2.
Cell Treatment, in Cell Western (ICW) for Detection of Symmetric Di-Methyl Arginine and DNA Content.
Z-138 cells were seeded in assay medium at a concentration of 50,000 cells per mL to a 384-well cell culture plate with 50 μL per well. Compound (100 nL) from 384 well source plates was added directly to 384 well cell plate. Plates were incubated at 37° C., 5% CO2 for 96 hours. After four days of incubation, 40 μL of cells from incubated plates were added to poly-D-lysine coated 384 well culture plates (BD Biosciences 356697). Plates were incubated at room temperature for 30 minutes then incubated at 37° C., 5% CO2 for 5 hours. After the incubation, 40 μL per well of 8% paraformaldehyde in PBS (16% paraformaldahyde was diluted to 8% in PBS) was added to each plate and incubated for 30 minutes. Plates were transferred to a Biotek 405 plate washer and washed 5 times with 100 μL per well of wash buffer (1×PBS with 0.1% Triton X-100 (v/v)). Next 30 μL per well of Odyssey blocking buffer were added to each plate and incubated 1 hour at room temperature. Blocking buffer was removed and 20 μL per well of primary antibody was added (symmetric di-methyl arginine diluted 1:100 in Odyssey buffer with 0.1% Tween 20 (v/v)) and plates were incubated overnight (16 hours) at 4° C. Plates were washed 5 times with 100 μL per well of wash buffer. Next 20 μL per well of secondary antibody was added (1:200 800CW goat anti-rabbit IgG (H+L) antibody, 1:1000 DRAQ5 (Biostatus limited) in Odyssey buffer with 0.1% Tween 20 (v/v)) and incubated for 1 hour at room temperature. The plates were washed 5 times with 100 μL per well wash buffer then 1 time with 100 μL per well of water. Plates were allowed to dry at room temperature then imaged on the Licor Odyssey machine which measures integrated intensity at 700 nm and 800 nm wavelengths. Both 700 and 800 channels were scanned.
First, the ratio for each well was determined by:
Each plate included fourteen control wells of DMSO only treatment (minimum inhibition) as well as fourteen control wells for maximum inhibition treated with 3 μM of a reference compound (Background wells). The average of the ratio values for each control type was calculated and used to determine the percent inhibition for each test well in the plate. Reference compound was serially diluted three-fold in DMSO for a total of nine test concentrations, beginning at 3 μM. Percent inhibition was determined and IC50 curves were generated using triplicate wells per concentration of compound. […]

Sequence of PRMT5/MEP50 (O14744 other isoform, or with tags, fused parts or gaps): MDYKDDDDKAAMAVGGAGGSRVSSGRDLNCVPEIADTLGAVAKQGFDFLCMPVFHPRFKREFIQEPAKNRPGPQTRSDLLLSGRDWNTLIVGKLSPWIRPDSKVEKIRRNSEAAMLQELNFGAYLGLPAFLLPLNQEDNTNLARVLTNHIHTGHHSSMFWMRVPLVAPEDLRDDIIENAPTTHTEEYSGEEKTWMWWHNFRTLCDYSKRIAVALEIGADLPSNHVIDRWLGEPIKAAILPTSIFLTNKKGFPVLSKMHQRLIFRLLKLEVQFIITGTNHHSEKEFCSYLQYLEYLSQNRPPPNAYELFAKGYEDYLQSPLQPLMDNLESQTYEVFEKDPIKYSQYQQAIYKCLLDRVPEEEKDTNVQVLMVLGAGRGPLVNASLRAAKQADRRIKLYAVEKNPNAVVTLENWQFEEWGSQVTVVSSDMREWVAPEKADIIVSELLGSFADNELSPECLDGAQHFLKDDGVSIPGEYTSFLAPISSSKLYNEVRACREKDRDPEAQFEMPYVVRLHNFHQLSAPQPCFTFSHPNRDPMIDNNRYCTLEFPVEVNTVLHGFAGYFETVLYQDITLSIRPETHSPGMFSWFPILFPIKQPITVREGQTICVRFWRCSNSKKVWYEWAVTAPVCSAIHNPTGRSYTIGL
Sequence of PRMT5/MEP50 (Q9BQA1 other isoform, or with tags, fused parts or gaps partner): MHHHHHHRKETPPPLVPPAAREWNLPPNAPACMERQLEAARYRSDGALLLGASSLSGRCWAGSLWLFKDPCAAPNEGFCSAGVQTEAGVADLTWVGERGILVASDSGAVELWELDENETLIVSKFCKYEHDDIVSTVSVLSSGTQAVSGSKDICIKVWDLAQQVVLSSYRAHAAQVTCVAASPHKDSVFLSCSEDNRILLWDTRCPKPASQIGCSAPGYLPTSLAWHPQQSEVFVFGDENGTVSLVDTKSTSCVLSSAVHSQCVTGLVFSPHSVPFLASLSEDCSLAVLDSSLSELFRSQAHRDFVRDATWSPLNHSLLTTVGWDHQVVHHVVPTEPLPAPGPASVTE

Compound | IC50 [1] [nM] | EC50 [2] [µM] | EC50 [3] [nM]
O=C(COc1cccc2cccnc12)NCC(O)CN1CCc2ccccc2C1 (centres unmarked) [Compound 6, N-(3-(3,4-dihydroisoquinolin-2(1H)-yl)-2-hydroxypropyl)-2-(quinolin-8-yloxy)acetamide] | < 100 | 0.101 to 1 | –
O=C(COc1cccc2cccnc12)NC[C@H](O)CN1CCc2ccccc2C1 [Compound 44, (S)—N-(3-(3,4-dihydroisoquinolin-2(1H)-yl)-2-hydroxypropyl)-2-(quinolin-8-yloxy)acetamide] | – | – | 101 to 1000
O=C(COc1cccc2cccnc12)NC[C@@H](O)CN1CCc2ccccc2C1 [Compound 45, (R)—N-(3-(3,4-dihydroisoquinolin-2(1H)-yl)-2-hydroxypropyl)-2-(quinolin-8-yloxy)acetamide] | < 100 | 0.101 to 1 | –
O=C(COc1ccccc1N1CCNCC1)NCC(O)CN1CCc2ccccc2C1 (centres unmarked) [Compound 79] | < 100 | 1 to 10 | –
O=C(COc1ccccc1C1CCCNC1)NCC(O)CN1CCc2ccccc2C1 (centres unmarked) [Compound 117] | – | 1 to 10 | 101 to 1000
O=C(COc1cccc(-n2ccnc2)c1)NC[C@@H](O)CN1CCc2ccccc2C1 [Compound 194] | 101 to 1000 | > 20 | > 1000
O=C(COc1cccc(-c2c[nH]cn2)c1)NC[C@@H](O)CN1CCc2ccccc2C1 [Compound 195] | 1000 to 10000 | > 20 | > 1000
O=C(COc1cccc(C(=O)NCCNCCO)c1)NC[C@@H](O)CN1CCc2ccccc2C1 [Compound 196] | 101 to 1000 | > 20 | > 1000
O=C(COc1cccc(N2CCNCC2)c1)NC[C@@H](O)CN1CCc2ccccc2C1 [Compound 197] | < 100 | 10 to 50 | 101 to 1000
CN(CCN)S(=O)(=O)c1ccccc1OCC(=O)NC[C@@H](O)CN1CCc2ccccc2C1 [Compound 198] | < 100 | > 20 | > 1000
CC(=O)Nc1cccc(OCC(=O)NC[C@@H](O)CN2CCc3ccccc3C2)c1C1CCCNC1 (some centres unmarked) [Compound 199] | 1000 to 10000 | > 20 | > 1000
O=C(CCc1nc2ccccc2o1)NC[C@@H](O)CN1CCc2ccccc2C1 [Compound 200] | 1000 to 10000 | > 20 | > 1000
CNCCN(C)S(=O)(=O)c1ccccc1OCC(=O)NC[C@@H](O)CN1CCc2ccccc2C1 [Compound 201] | < 100 | 1 to 10 | < 100
CC1CNCCN1S(=O)(=O)c1ccccc1OCC(=O)NC[C@@H](O)CN1CCc2ccccc2C1 (some centres unmarked) [Compound 202] | < 100 | 10 to 50 | 101 to 1000
CC1CN(C)CCN1S(=O)(=O)c1ccccc1OCC(=O)NC[C@@H](O)CN1CCc2ccccc2C1 (some centres unmarked) [Compound 203] | 101 to 1000 | > 20 | 101 to 1000
CC(Oc1ccccc1[C@@H]1CCCNC1)C(=O)NC[C@@H](O)CN1CCc2ccccc2C1 (some centres unmarked) [Compound 204] | 101 to 1000 | 10 to 50 | > 1000
CC(Oc1ccccc1[C@H]1CCCNC1)C(=O)NC[C@@H](O)CN1CCc2ccccc2C1 (some centres unmarked) [Compound 205] | 1000 to 10000 | 10 to 50 | > 1000
O=C(CCn1cnc2ccccc21)NC[C@@H](O)CN1CCc2ccccc2C1 [Compound 206] | 1000 to 10000 | > 20 | > 1000
Cc1ccc2[nH]c(CCC(=O)NC[C@@H](O)CN3CCc4ccccc4C3)nc2c1 [Compound 207] | 101 to 1000 | 10 to 50 | 101 to 1000
O=C(CCc1nc2cc(Cl)ccc2[nH]1)NC[C@@H](O)CN1CCc2ccccc2C1 [Compound 208] | 101 to 1000 | 10 to 50 | 101 to 1000
CN(C[C@@H](O)CN1CCc2ccccc2C1)C(=O)CCc1nc2ccccc2[nH]1 [Compound 209] | 101 to 1000 | 10 to 50 | 101 to 1000
CC1CN(S(=O)(=O)c2ccccc2OCC(=O)NC[C@@H](O)CN2CCc3ccccc3C2)CCN1 (some centres unmarked) [Compound 210] | 101 to 1000 | 10 to 50 | 101 to 1000
CN(C)S(=O)(=O)c1c(OCC(=O)NC[C@@H](O)CN2CCc3ccccc3C2)cccc1N1CCNCC1 [Compound 252] | – | < 0.1 | < 100
